In US9944589B2, “Cycloproplyamine derivatives useful as inhibitors of histone demethylases KDM1A” (Istituto Europeo de Oncologia S.r.L., priority 2012, dated 2018) one finds IC50 data, which are given here for 14 molecules.

This assay concerns the target T1, human recombinant KDM1A (LSD1)/CoRest (Homo sapiens, UniProt O60341).
T1 construct: made in house; host or cells: E. coli
Kind of assay: Assay of enzyme inhibition of KDM1A (LSD1), Amplex UltraRed/peroxidase coupled. In kind it is biochemical. As to conditions: 15 min preincubation, 4.5 μM mono-methylated H3-K4 peptide, range classes, read-out: IC50 [μM], KDM1A inhibition assay. The procedure: The experiments were performed using a mono-methylated H3-K4 peptide containing 21 amino acids (custom synthesis done by Thermo Scientific) as substrate and in a 50 mM TRIS, pH 8, 0.05 mg/ml BSA buffer.
The demethylase activity was estimated under aerobic conditions and at RT by measuring the release of H2O2 produced during the catalytic process by the Amplex® UltraRed detection system coupled with peroxidase assay. Briefly, a fixed amount of KDM1A/CoRest complex was incubated at RT for 15 minutes in the absence and/or the presence of various concentrations of inhibitor (e.g. from 0 to 100 μM, depending on the inhibitor strength) and of Amplex® UltraRed detection system coupled with peroxidase assay. The inhibitors were tested twice in duplicates at each concentration. […] The conversion of the Amplex® Ultra Red reagent to resorufin was monitored in continuous by fluorescence (excitation at 540 nm, emission at 590 nm) using a microplate reader (Infinite 200, Tecan). Arbitrary units were used to measure the level of H2O2 produced in the absence and/or in the presence of inhibition. The maximum demethylase activity of KDM1A/CoRest was obtained in the absence of inhibitors and corrected for background fluorescence in the absence of KDM1A/CoRest. The IC50 was calculated using GraphPad Software.

Structures can show the parent of a compound that is named as a salt. Where only a bound is given, the exact number is not on record here.

`CC[C@@]1(N)C[C@H]1c1ccc(NC(=O)c2ccc(-c3ccccc3)c(NC3CCN(C)CC3)c2)cc1` (relative stereo) [Example A-66, N-[4-(trans-2-amino-2-ethyl-cyclopropyl)phenyl]-3-[(1-methyl-4-piperidyl)amino]-4-phenyl-benzamide dihydrochloride]: the 50% inhibitory concentration (IC50) (in general, the concentration that inhibits the measured activity by half) is less than 0.1 µM.

Turning to `CC[C@@]1(N)C[C@H]1c1cccc(NC(=O)c2ccccc2)c1` (relative stereo) [Example A-93, N-[3-[trans-2-amino-2-ethyl-cyclopropyl]phenyl] benzamide hydrochloride], the IC50 lay within 0.1 to 1 µM.

Turning to `CC[C@@]1(N)C[C@H]1c1cccc(C(F)(F)F)c1` (relative stereo) [Example A-18, trans-1-ethyl-2-[3-(trifluoromethyl)phenyl]cyclo-propanamine hydrochloride], the IC50 was in the range of 0.1 to 1 µM.

Regarding `N[C@]1(Cc2ccccc2)C[C@H]1c1ccc(F)cc1` (relative stereo) [Example A-60, trans-1-benzyl-2-(4-fluorophenyl)cyclo-propanamine], the IC50 lay in the range of 0.1 to 1 µM.

Consider `CC[C@@]1(N)C[C@H]1c1ccccc1Cl` (relative stereo) [Example A-26, trans-1-ethyl-2-(2-chlorophenyl)-cyclopropanamine hydrochloride], for which the 50% inhibitory concentration (IC50) lay in the range of 0.1 to 1 µM.

`N[C@]1(CCc2ccccc2)C[C@H]1c1ccc(NC(=O)c2ccncc2)cc1` (relative stereo) [Example A-112, N-[4-(trans-2-amino-2-phenethyl-cyclopropyl)phenyl] pyridine-4-carboxamide hydrochloride]: the IC50 was less than 0.1 µM.

`CC[C@@]1(N)C[C@H]1c1ccc(NC(=O)c2ccc(NCCO)cc2)cc1` (relative stereo) [Example A-120, N-[4-(trans-2-amino-2-ethyl-cyclopropyl]phenyl)-4-(2-hydroxyethylamino)benzamide hydrochloride]: the IC50 was in the range of 0.1 to 1 µM.

Turning to `CC[C@@]1(N)C[C@H]1c1ccc(NC(=O)Cc2ccc([N+](=O)[O-])cc2)cc1` (relative stereo) [Example A-69, N-[4-trans-[2-amino-2-ethyl-cyclopropyl]phenyl]-2-(4-nitrophenyl) acetamide hydrochloride], the IC50 is less than 0.1 µM.

With `N[C@]1(Cc2ccc3ccccc3c2)C[C@H]1c1ccc(-n2cc(-c3cccc(NC(=O)OCc4ccccc4)c3)nn2)cc1` [Example A-123, benzyl N-[3-[1-[4-[2-amino-2-(2-naphthylmethyl)cyclopropyl]phenyl]triazol-4-yl]phenyl] carbamate hydrochloride], the IC50 is less than 0.1 µM.

For the molecule `C[C@]1(NCC(=O)N2CC[C@H](N)C2)C[C@@H]1c1ccccc1` [Example C-5, 1-[(3S)-3-aminopyrrolidin-1-yl]-2-[[(1S,2R)-1-methyl-2-phenyl-cyclopropyl]amino] ethanone hydrochloride], the IC50 was 0.1 to 1 µM.

For `CC[C@@]1(N)C[C@H]1c1ccccc1Br` (relative stereo) [Example A-27, trans-1-ethyl-2-(2-bromophenyl)-cyclopropanamine hydrochloride], the IC50 was 0.1 to 1 µM.

In the case of `N[C@]1(c2ccccc2)C[C@H]1c1ccc(NC(=O)c2cccc(Cl)c2)cc1` (relative stereo) [Example A-103, N-[4-(trans-2-amino-2-phenyl-cyclopropyl]phenyl]-3-chloro-benzamide hydrochloride], the IC50 is less than 0.1 µM.

Turning to `CN[C@]1(C)C[C@H]1c1ccccc1` (relative stereo) [Example C-29, trans-N,1-dimethyl-2-phenyl-cyclopropanamine hydrochloride], the concentration for half-maximal inhibition (IC50) was 1 to 5 µM.

Turning to `CC[C@@]1(NCC(=O)N2CCN(C)CC2)C[C@H]1c1ccccc1` (relative stereo) [Example C-6, trans-2-[[(1-ethyl-2-phenyl-cyclopropyl]amino]-1-(1-methylpiperazin-1-yl)ethanone trifluoroacetate], the IC50 fell in the range of 0.1 to 1 µM.
